Experimental data reported in PMC10660337, “Mutate and Conjugate: A Method to Enable Rapid In-Cell Target Validation” (ACS Chemical Biology, 2023).
“Also recorded” adds a separate entry of the source.

Legend:
[1] = test system: endogenous proteins of HEK293T cells; test: In-cell proteome-wide selectivity of clickable probes; format: cell-based, human; conditions: 10 μM probe, 1 h, live HEK293T cells expressing BRD4(1)^L94C or BRD4(1)^WT
Method: To evaluate proteome-wide selectivity of the clickable probes, HEK293T cells transiently expressing BRD4(1)^L94C or BRD4(1)^WT were incubated with 10 μM of probes 28–30 and 42 for 1 h before the cells were lysed and the CuAAC reaction with TAMRA-PEG3-azide was conducted (Figure 7A). […]
(§1) reaction mix was taken and 8 µL of Lamelli buffer added, and the samples denatured by heating at 95 °C for 10 min. Samples were separated by gel electrophoresis on NuPAGE™ 4–12%, Bis-Tris precast polyacrylamide gels (Thermofisher). Following electrophoresis, gels were stained for 15 min with InstantBlueTM Coomasie® stain (Abcam), destained, and imaged using Bio-rad molecular imager.
(§2) Bio-rad Image Lab 6.1 was used to process the data.
(§3) In-cell target engagement
In-cell labeling by clickable probes
Transfected HEK293T cells at ~90% confluency were incubated for 1 h with a DMSO control (0.5% DMSO final concentration) or a click probe (10 µM, 0.5% DMSO final concentration) diluted in Opti- […]
Cells were then harvested and lysed using the previously described protocol above. The resulting cell lysates were diluted to 2 mg/mL using the previously described protocol above. […]
(§4) Gels were imaged for fluorescence using Bio-rad molecular imager and then stained for 15 min with InstantBlueTM Coomasie® stain (Abcam), destained, and imaged using Bio-rad molecular imager. […]

BRD4(1)^L94C = target: T1, BRD4(1)^L94C (Homo sapiens, UniProt O60885, L94C); test: Fluorescent labeling of purified protein (CuAAC with TAMRA-PEG3-azide, in-gel fluorescence); format: binding; conditions: 50 μM probe, 10 μM protein, 4 h, 37 °C, then CuAAC 1 h
T1 construct: Characterization of His6-BRD4(1)L94C; made in house; host or cells: E. coli BL21 (DE3)
Method: When 28, 29, 30, and 42 were incubated with either purified BRD4(1)^L94C or BRD4(1)^WT and subjected to a copper(I)-catalyzed alkyne–azide click reaction (CuAAC) reaction with the fluorescent TAMRA-PEG3-azide dye, all clickable probes labeled the mutant protein and could be visualized using fluorescence imaging of a gel (Figure 6).
Figure 6 Clickable probes 28, 29, 30, and 42 covalently label BRD4(1)^L94C and undergo a subsequent CuAAC reaction with TAMRA-PEG3 azide to fluorescently label the protein, as shown by in-gel fluorescence imaging. Compounds 28, 29, 30, 41, and 42 (50 μM) were incubated with purified BRD4(1)^L94C or BRD4(1)^WT (10 μM) for 4 h at 37 °C, followed by CuAAC reaction with TAMRA-PEG3 azide for 1 h and separation of components by SDS-PAGE. For all compounds other than 30, only labeling of BRD4(1)^L94C was observed. […]
Fluorescent labeling of purified proteins
Assays were performed in 1.5 mL Eppendorf tubes at 37 °C, and gently shaken, unless otherwise stated.
The desired click probe (50 µM) was incubated with protein (10 µM) in protein LCMS buffer for 4 h, after which TAMRA-PEG3-Azide (200 µM), TCEP·HCl (1 mM), TBTA (100 µM), and CuSO4 (1 mM) were added and incubated for a further 1 h at room temperature in the dark. A 25 µL sample of the […]
as §1
Bio-rad Image Lab 6.1 was used to process the data. […]
InstantBlueTM Coomasie® stain (Abcam), destained, and imaged using Bio-rad molecular imager. […]
MEM media. Cells were then harvested and lysed using the previously described protocol above. […]

[2] = test system: T2, BRD4(1)^L94C transiently expressed in HEK293T cells; test: OXFBD04 (3) competition assay in cells; format: cell-based, human; conditions: OXFBD04 30 min preincubation, then probe 10 µM for 1 h
T2 construct: the L94C mutation in the first bromodomain of BRD4 [BRD4(1)]; StrepII; expressed in transfected cells; host or cells: HEK293T
Method: Compound engagement with BRD4(1)^L94C was further validated by using an immunoprecipitation (IP) assay (Figure S22). Here, transfected HEK293T cells expressing StrepII-tagged BRD4(1)^L94C or StrepII-tagged BRD4(1)^WT were incubated with compound 42 before being lysed. The StrepII-tagged bromodomains were then pulled down using anti-StrepII antibodies, and the samples were separated by SDS-PAGE for analysis. […]
as §1, §2, §3
In-cell labeling by clickable probes […]
as §4
Transfected HEK293T cells at ~90% confluency were incubated for 30 min with a DMSO control or varying concentrations of OXFBD04 diluted in Opti-MEM media. […] Cells were then harvested, processed, and analysed using the previously described protocol above. […]

Row | Structure (SMILES) | Proteome-wide selectivity / off-target binding to endogenous proteins [1] | Labeling of purified BRD4(1)^L94C, in-gel fluorescence (BRD4(1)^L94C) | BRD4(1)^L94C labeling by probe with increasing concentration of OXFBD04 (3) [2]
1 | C#CCOc1ccc(-c2c(C)noc2NC(=O)C=C)cc1 [Compound 30] | low cellular selectivity | high levels | concomitant reduction
2 | C#CCOc1cc(NC(=O)C=C)ccc1N1CCCC1=O [Compound 42] | exquisite proteome-wide selectivity; also recorded: almost complete selectivity | high levels | decreased levels
